For 33 compounds, TGI and GI50 results are on record in PubChem BioAssay (NCI).

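Method: 48-hour compound exposure of cells in 96-well plates, five concentrations, linear interpolation of endpoints. GI50 = concentration required for 50% inhibition of growth. TGI: total growth inhibition.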

The first assay relates to A498 renal. The experiment in a line: growth of human tumour cells (NCI), 48 h.
Turning to `O=c1nc(-c2ccccc2)c2c3c(cccn13)CCC2`, the TGI is over 100 µM.
The same measure, in the same setting: as for `COc1ccc([C@H]2CC(=O)N3CCCC3N2)cc1` (stereo partly specified), the figure is over 100 µM; as for `C=C(C)C1CC2C(C)=C(OC(C)=O)C1n1c(=O)c3cc4ccccc4cc3c(=O)n12` (stereo unspecified), over 100 µM; as for `O=C(CC(C(=O)c1cccs1)c1ccc2c(c1)OCO2)c1ccc(Br)cc1` (stereo unspecified), over 100 µM.
The same measure, in the same setting: with `O=C(CCc1nc(=S)[nH][nH]1)NC12CC3CC(CC(C3)C1)C2` the figure was over 100 µM; with `CSc1nc2c(c(O)c(C)c(=O)n2C2OC(COC(C)=O)C(OC(C)=O)C(OC(C)=O)C2OC(C)=O)c(=O)n1C` (stereo unspecified), over 100 µM; with `CC(C)N(C(=O)C12C3C4C1C1C2C3C41C(O)C(C)(C)C)C(C)C` (stereo unspecified), over 50 µM.
In turn, `Nc1c(C(=O)Nc2ccc([As](=O)(O)O)cc2)cnc2nnnn12` registered a TGI of over 100 µM.
In the case of `N#CC(C#N)SCc1ccccc1`, the TGI was over 100 µM.
Take `Cc1cc(N(CCNc2ccnc3cc(Cl)ccc23)Cc2ccc3c(c2)OCO3)nc(N2CCN(C)CC2)n1`: the GI50 is 2430 nM and the TGI came to 8.85 µM.
The compound `Cc1c(C)c2cc3c(=O)ccoc3c(C)c2oc1=O` returned a TGI of over 100 µM.

Another assay relates to HS 578T breast. The experiment in a line: growth of human tumour cells (NCI), 48 h.
The compound `Cc1ccc(C(=O)Cc2nc3c([nH]c2=O)c(C)nn3-c2ccccc2)c(C)c1` displayed a TGI of over 10 µM.
The compound `N#CC(C#N)SCc1ccccc1` yielded a TGI of 98.3 µM.
In the case of `Cc1cc(N(CCNc2ccnc3cc(Cl)ccc23)Cc2ccc3c(c2)OCO3)nc(N2CCN(C)CC2)n1`, the GI50 is 1870 nM and the TGI stood at 5.2 µM.

In a further assay the test system is CCRF-CEM leukemia. As to the kind of experiment: growth of human tumour cells (NCI), 48 h.
Take `O=C1c2ccccc2N2OC3(N4CCCC4)CCCC3C12c1ccccc1` (stereo unspecified): the TGI was over 100 µM.
`Nc1nc2c(ncn2Cc2ccccc2CCO)c(=O)[nH]1` registered a TGI of over 100 µM.
Same read-out and setting: with `CCC1(Br)C(=O)NC(=O)N(C2CC(O)C(CO)O2)C1N=[N+]=[N-]` (stereo unspecified) the figure was over 100 µM; with `O=[N+]([O-])c1ccc(N=Nc2c(O)[nH]c3ccc([N+](=O)[O-])cc23)cc1`, over 100 µM.
Still for that read-out and setting: as for `CC12CC3(C)CC(C)(C1)CC(N=[N+]=[N-])(C2)C3`, the figure is over 100 µM; as for `N=C(N)SCc1cn2ccccc2n1`, over 100 µM.
Take `Clc1ccc([O][In]([O]c2ccc(Cl)cn2)[O]c2ccc(Cl)cn2)nc1`: the GI50 is over 100000 nM and the TGI was over 100 µM.
Consider `Fc1cccc(Cl)c1C1SCc2nc3ccccc3n21` (stereo unspecified), for which the TGI is over 100 µM.
Consider `COc1cc2nncc(Sc3cnnc4ccccc34)c2cc1OC`, for which the TGI worked out at 73.9 µM.
`COC(=O)C1=CCON(c2ccccc2)C1c1ccccc1` (stereo unspecified) returned a TGI of over 100 µM.
In turn, `CC(=O)N(CCN)CCN` displayed a TGI of over 10 µM.
`Cc1cc(O)c2c(c1)C(O)(c1ccc3c(c1O)C(=O)c1c(O)cc(C)cc1C3(O)C1OC(CO)C(O)C(O)C1O)c1cccc(O)c1C2=O` (stereo unspecified) yielded a TGI of 25.8 µM.
On the same count and under the same terms, with `COC(=O)c1nc(NN)[nH]c(=O)c1CCCCCc1c(C(=O)OC)[nH]c(NN)cc1=O` the figure was over 100 µM; with `CC1(C)C(=O)C(O)=CC2C1=CCC1C2(C)C(=O)CC2(C)C(C(C)(O)C(=O)CC(O)C(C)(C)O)C(O)CC12C` (stereo unspecified), 12 µM.
The same measure, in the same setting: with `CCc1ccccc1NC(=O)C(=O)C(C(=O)c1ccc(OC)cc1)c1ccc(OC)cc1` (stereo unspecified) the figure was over 100 µM.
In turn, `Cc1ccc(C(=O)Cc2nc3c([nH]c2=O)c(C)nn3-c2ccccc2)c(C)c1` showed a TGI of over 10 µM.
`C/C(=N/N(C=O)C[n+]1ccccc1)C(CN(CC(C)C)CC(C)C)C(=O)Nc1ccc(C)cc1C` (stereo unspecified) had a TGI of over 100 µM.
In turn, `O=c1nc(-c2ccccc2)c2c3c(cccn13)CCC2` gave a TGI of over 100 µM.
`COc1ccc([C@H]2CC(=O)N3CCCC3N2)cc1` (stereo partly specified) showed a TGI of over 100 µM.
Same read-out and setting: with `O=C(c1ccccc1)c1c(CC(O)c2cccnc2)n(C(=O)c2ccccc2)c2ccccc12` (stereo unspecified) the figure was 63.4 µM; with `O=C(CC(C(=O)c1cccs1)c1ccc2c(c1)OCO2)c1ccc(Br)cc1` (stereo unspecified), over 100 µM; with `O=C(CCc1nc(=S)[nH][nH]1)NC12CC3CC(CC(C3)C1)C2`, over 100 µM.
The compound `CSc1nc2c(c(O)c(C)c(=O)n2C2OC(COC(C)=O)C(OC(C)=O)C(OC(C)=O)C2OC(C)=O)c(=O)n1C` (stereo unspecified) registered a TGI of over 100 µM.
Consider `Cc1nc2c(n1CC(C)(C)C)C(=O)c1ccccc1C2=O`, for which the TGI is over 100 µM.
For `COc1ccc(C(C2=C(C)C(=O)c3ccccc3C2=O)c2ccc(C(C)C)cc(=O)c2O)cc1` (stereo unspecified), the TGI was over 100 µM.
Regarding `CC(C)N(C(=O)C12C3C4C1C1C2C3C41C(O)C(C)(C)C)C(C)C` (stereo unspecified), the TGI is over 50 µM.
`Nc1c(C(=O)Nc2ccc([As](=O)(O)O)cc2)cnc2nnnn12` gave a TGI of over 100 µM.
`N#CC(C#N)SCc1ccccc1` registered a TGI of over 87 µM.
`Cc1cc(N(CCNc2ccnc3cc(Cl)ccc23)Cc2ccc3c(c2)OCO3)nc(N2CCN(C)CC2)n1`: the GI50 is 2980 nM and the TGI was determined as 9.31 µM.
As to `Cc1c(C)c2cc3c(=O)ccoc3c(C)c2oc1=O`, the TGI is over 100 µM.

Another assay has as its system HOP-62 NSCLC. The experiment in a line: growth of human tumour cells (NCI), 48 h.
As for `O=C1c2ccccc2N2OC3(N4CCCC4)CCCC3C12c1ccccc1` (stereo unspecified), the TGI was over 100 µM.
With `COc1ccc(C2C(Cl)C(=O)N2n2cnc3ccccc3c2=O)cc1OC` (stereo unspecified), the TGI is over 100 µM.
`Nc1nc2c(ncn2Cc2ccccc2CCO)c(=O)[nH]1` gave a TGI of over 100 µM.
Still for that read-out and setting: as for `CCC1(Br)C(=O)NC(=O)N(C2CC(O)C(CO)O2)C1N=[N+]=[N-]` (stereo unspecified), the figure is over 100 µM; as for `O=c1oc2ccccc2c(O)c1C=NC(=S)c1ccncc1`, over 100 µM.
In turn, `O=[N+]([O-])c1ccc(N=Nc2c(O)[nH]c3ccc([N+](=O)[O-])cc23)cc1` gave a TGI of 38.3 µM.
For the compound `CC12CC3(C)CC(C)(C1)CC(N=[N+]=[N-])(C2)C3`, the TGI was over 100 µM.
`N=C(N)SCc1cn2ccccc2n1`: the TGI is over 100 µM.
In the case of `Fc1cccc(Cl)c1C1SCc2nc3ccccc3n21` (stereo unspecified), the TGI was over 100 µM.
The compound `COc1cc2nncc(Sc3cnnc4ccccc34)c2cc1OC` registered a TGI of over 100 µM.
Still for that read-out and setting: as for `COC(=O)C1=CCON(c2ccccc2)C1c1ccccc1` (stereo unspecified), the figure is over 100 µM; as for `CC(=O)N(CCN)CCN`, over 10 µM; as for `Cc1cc(O)c2c(c1)C(O)(c1ccc3c(c1O)C(=O)c1c(O)cc(C)cc1C3(O)C1OC(CO)C(O)C(O)C1O)c1cccc(O)c1C2=O` (stereo unspecified), 28.9 µM.
